Experimental data published in patent publication EP4644375A1, “SUBSTITUTED HYDROQUINOLINES FOR THE TREATMENT OF GLIOBLASTOMA MULTIFORME” (Molius Saglik Teknolojileri Anonim Sirketi, priority 2024, dated 2025).

How the values were obtained:
[1] = system: U87-MG human glioma cell; test: Cell proliferation analysis (MTT); assay type: cell-based; details: for activity at 10 µM / inhibition at 10 µM: Homo sapiens, U-87 MG, 48 h, two days, MTT
[2] = system: U138-MG human glioma cell; test: Cell proliferation analysis (MTT); assay type: cell-based; details: for activity at 10 µM / inhibition at 10 µM: Homo sapiens, 48 h, two days, MTT
[3] = system: GBM xenograft rat model; test: In vivo GBM rat model: histopathological examination of brain tissues; details: H&E, GBM rats, 30 mg/kg oral, 5 days
Experimental: An in Vivo study was performed to assess the therapeutic potential of TR-G002, TR-G045, TR-G053, TR-G066, TR-G071 and TR-G091 in the GBM xenograft rat model when administered orally by gavage for five consecutive days. 152 female rats of the Sprague Dawley strain were allocated to the study. Six groups of sixteen females were given dose of 30 mg/kg of the respective target compounds. […] The study design can be seen in Fig. 11 and Table 10.
Female Sprague Dawley rats (age: 6-8 weeks; weight: 255-310 g; ATADEM, Erzurum, Turkey) were utilized in the study. Rats underwent anaesthesia with 5% isoflurane, maintained at 2% isoflurane (1 L/min oxygen), and were positioned in a stereotactic frame for cell implantation (Stoelting Co., IL). […] A burr hole was drilled 1-mm anterior and 3-mm lateral to the right bregma. A microsyringe (Hamilton 1700 series) containing 5×10^4 U87-MG cells suspended in 5 µL of medium at 37 °C was advanced to a depth of 4 mm into the brain. The cells were injected at a rate of 3 µL/ min. Bone wax was used to fill the burr hole to prevent cell suspension reflux. The incision was sutured, and 1 mL of Meloxicam (5 mg/mL; Metacam, Boehringer Ingelheim Vetmedica, Ingelheim, Germany) was administered via a subcutaneous injection.
Fourteen days after inoculation, tumor development in rats was visualized and confirmed through magnetic resonance imaging (MRI). Rats confirmed to have developed tumors were then distributed into six different groups for treatment. […] 9 days after the final treatment dose, the rats underwent another MRI scan and blood and brain samples were taken under anaesthesia.
Brain tissue samples were fixed in a 10% buffered formaldehyde solution. After fixation, the tissues were processed through graded alcohol and xylene series and embedded in paraffin blocks. Sections of 5 µm thickness were taken from the paraffin blocks at intervals of 50-100 µm. Hematoxylin and eosin staining was performed on these sections to evaluate histopathological changes. Histopathological findings included tumor focus size, necrotic area, vascular proliferation, and cellular proliferation patterns. Tumor focus size was categorized as follows based on the diameter measured with a 4X objective on the microscope: >3500 µm was considered very severe, 3499-2000 µm severe, 1999-1000 µm moderate, 999-500 µm mild, and <500 µm very mild. Necrotic area size was classified based on the diameter of necrosis: >1500 µm as very severe, 1499-1000 µm severe, 999-500 µm moderate, 499-200 µm mild, and <199 µm very mild.

[4] = In vivo GBM rat model: plasma chemistry; parameters: CREA. / UA / TCHOL / HDLC: unit not given here; details: for ALP / ALT / AST / CREA. / GLU / HDLC / LDH / LDL C / TCHOL / TG / UA: GBM rats, 30 mg/kg oral, 5 days, plasma at necropsy; for levels of AST, ALT and LDH: in comparison to the levels in untreated GBM rats
Experimental: The parameters that were analysed can be seen in Table 11.

C=Cc1ccc(COc2ccc3c(c2)CCC(=O)N3)cc1 [TR-G053, 6-((4-vinylbenzyl)oxy)-3,4-dihydroquinolin-2(1H)-one]
lowest cell proliferation [1]: 42% | activity at 10 µM [1]: 42% | inhibition at 10 µM [1]: 58% | top 5 target compounds whose treatment resulted in the lowest proliferation ([1]; ranking): top 5 | activity at 10 µM [2]: 53% | inhibition at 10 µM [2]: 47% | cellular proliferation / mitosis [3]: intense mitosis around blood vessels | necrosis (grade) [3]: Severe | tumor focus (description) [3]: tumor focus including both grey and white matter | ALP [4]: 125.67 IU/L | ALT [4]: 44.57 IU/L | AST [4]: 96.87 IU/L | CREA. [4]: 0.34 | GLU [4]: 293 mg/dL | HDLC [4]: 34.33 | LDH [4]: 514 IU/L | LDL C [4]: 5.63 mmol/L | TCHOL [4]: 56.33 | TG [4]: 117 mg/dL | UA [4]: 1.64 | levels of AST, ALT and LDH [4]: significantly decreased

O=C1CCc2cc(OS(=O)(=O)c3cccc4ccccc34)ccc2N1 [TR-G045, 2-oxo-1,2,3,4-tetrahydroquinolin-6-yl naphthalene-1-sulfonate]
activity at 10 µM [1]: 71% | inhibition at 10 µM [1]: 29% | activity at 10 µM [2]: 71% | inhibition at 10 µM [2]: 30% | cellular proliferation / mitosis [3]: moderate mitosis | necrotic cells (description) [3]: Necrotic cells were present in the central regions | tumor focus size (grade) [3]: moderate (1999-1000 µm moderate) | vascular proliferation [3]: vascular proliferation in the vicinity of healthy tissue | ALP [4]: 138.47 IU/L | ALT [4]: 54.5 IU/L | AST [4]: 104.7 IU/L | CREA. [4]: 0.35 | GLU [4]: 316 mg/dL | HDLC [4]: 37.58 | LDH [4]: 506.78 IU/L | LDL C [4]: 5.28 mmol/L | TCHOL [4]: 56.52 | TG [4]: 120 mg/dL | UA [4]: 1.6 | levels of AST, ALT and LDH [4]: significantly decreased

COc1cc(NC(=O)COc2ccc3c(c2)CCC(=O)N3)cc(OC)c1 [TR-G091, N-(3,5-dimethoxyphenyl)-2-((2-oxo-1,2,3,4-tetrahydroquinolin-6-yl)oxy)acetamide]
activity at 10 µM [1]: 101% | inhibition at 10 µM [1]: -1% | activity at 10 µM [2]: 86% | inhibition at 10 µM [2]: 14% | necrosis (grade) [3]: Moderate | tumor focus (description) [3]: extended tumor focus encompassing both grey and white matter | ALP [4]: 122.87 IU/L | ALT [4]: 46.97 IU/L | AST [4]: 127.9 IU/L | CREA. [4]: 0.29 | GLU [4]: 299 mg/dL | HDLC [4]: 36.57 | LDH [4]: 546.17 IU/L | LDL C [4]: 5.03 mmol/L | TCHOL [4]: 54.43 | TG [4]: 121 mg/dL | UA [4]: 1.7

CC(C)CCOc1ccc2c(c1)CCC(=O)N2 [TR-G002, 6-(isopentyloxy)-3,4-dihydroquinolin-2(1H)-one]
activity at 10 µM [1]: 48% | inhibition at 10 µM [1]: 52% | activity at 10 µM [2]: 52% | inhibition at 10 µM [2]: 48% | cellular proliferation / mitosis [3]: mild | tumor focus (description) [3]: significantly reduced tumor focus | vascular proliferation [3]: mild | ALP [4]: 124.22 IU/L | ALT [4]: 48.37 IU/L | AST [4]: 129.93 IU/L | CREA. [4]: 0.31 | GLU [4]: 317 mg/dL | HDLC [4]: 37.5 | LDH [4]: 535.72 IU/L | LDL C [4]: 4.42 mmol/L | TCHOL [4]: 54.38 | TG [4]: 115 mg/dL | UA [4]: 1.71

C=CCOC(=O)COc1ccc2c(c1)CCC(=O)N2 [TR-G071, Allyl 2-((2-oxo-1,2,3,4-tetrahydroquinolin-6-yl)oxy)acetate]
activity at 10 µM [1]: 97% | inhibition at 10 µM [1]: 3% | activity at 10 µM [2]: 100% | inhibition at 10 µM [2]: 0% | cellular proliferation / mitosis [3]: moderate levels of mitosis | necrosis (grade) [3]: moderate (999-500 µm moderate) | tumor focus (description) [3]: expanded tumor focus | vascular proliferation [3]: moderate | ALP [4]: 130.5 IU/L | ALT [4]: 61.25 IU/L | AST [4]: 132.5 IU/L | CREA. [4]: 0.34 | GLU [4]: 295 mg/dL | HDLC [4]: 34.9 | LDH [4]: 504.2 IU/L | LDL C [4]: 5.65 mmol/L | TCHOL [4]: 53.35 | TG [4]: 129 mg/dL | UA [4]: 1.69

O=C(COc1ccc2c(c1)CCC(=O)N2)N/N=C/c1cnc(-c2ccc(Cl)cc2)nc1 [TR-G066, (E)-N'-((2-(4-chlorophenyl)pyrimidin-5-yl)methylene)-2-((2-oxo-1,2,3,4-tetrahydroquinolin-6-yl)oxy)acetohydrazide]
inhibition at 10 µM [1]: 33% | lowest cell proliferation [2]: 39% | inhibition at 10 µM [2]: 62% | tumor focus (description) [3]: few tumor cells, particularly around blood vessels, rather than a distinct tumor focus shape | ALP [4]: 137.08 IU/L | ALT [4]: 38.94 IU/L | AST [4]: 96.48 IU/L | CREA. [4]: 0.38 | GLU [4]: 295 mg/dL | HDLC [4]: 34.24 | LDH [4]: 476.16 IU/L | LDL C [4]: 4.94 mmol/L | TCHOL [4]: 58.56 | TG [4]: 122 mg/dL | UA [4]: 1.7 | levels of AST, ALT and LDH [4]: significantly decreased
